Assay results published in EP0833161A1, “Method for maintaining a continuously-saturated level of ascorbic acid in a patient's body” (Ordman, Alfred B., priority 1996, dated 1998).

Legend:
[1] = Effect of single daily dose of vitamin C on total 24-hour urinary excretion (DCIP assay); assay type: in vivo, human
Experimental: In order to determine how daily dosages related to total excretion and whether high daily doses would alter the rate of excretion after a week, groups of test subjects took either 0, 0.25, 1, or 2 gram doses of vitamin C at 8 am daily for 8 consecutive days. All urine was collected and pooled on day 1 and on day 8. The concentration was assayed and the total amount of vitamin C excreted during the 24-hour period was determined, as shown in Fig. 1.
(§1) Vitamin C was assayed by the 2,6-dichlorophenolindophenol (DCIP) assay (see Omaye, T. S. et al. "Selected Methods for the Determination of Ascorbic Acid in Animal Cells," in Methods Enzymol.: Vitamins and Coenzymes, Vol. 62, edited by McCormick, D. B. and L. D. Wright, New York, Academic Press, 1979, pp. 3-11). Samples diluted to 0-40 µg ascorbic acid with 5% phosphoric acid were assayed in a citrate/acetate buffer by reaction with DCIP, and the color at 520 nm compared with standards. Samples were assayed in duplicate and each experiment was repeated.
Vitamin C was administered daily to five individuals at 8 am for eight consecutive days. All urine for each individual was collected during the first and last 24-hour periods and the total amount of vitamin C excreted in the urine was determined by DCIP assay.

[2] = Rate of urinary excretion of a single daily dose of vitamin C, every micturition assayed (DCIP assay); assay type: in vivo, human
Experimental: In order to determine how rapidly vitamin C is excreted, several individuals took 2 grams of vitamin C daily (single dose) for 8 consecutive days, and collected samples and measured the volume of every micturition during the first and last day. The experiment was repeated with the same individuals after a seven-day rest. Each sample was analyzed to determine the time period, concentration range, and total urinary excretion of vitamin C. The results arc shown in Fig. 2 for three representative individuals. Vitamin C concentration in the urine increased after 4 hours from time of intake and remained elevated for a total of 12 hours, consistent with the hypothesis that vitamin C levels in the body are not elevated for an entire 24 hour period by a single daily dose.
as §1
Fig. 2 illustrates the effect of two grams of daily single-dose vitamin C taken orally for eight days, followed by six days with no intake, and then by eight more days of two grams taken daily in a single dose. Each micturition during the first and last 24 hours of each eight-day period was collected and assayed to determine the total mass of vitamin C excreted. Figures 2a-2c represent excretion from three different individuals.

[3] = Effect of twice-daily doses of vitamin C on urinary output (DCIP assay); assay type: in vivo, human; details: for urinary excretion: one individual
Experimental: Twice-daily doses of 500 mg were sufficient to elevate vitamin C in the urine continuously as shown for 5 individuals in Fig. 4.
as §1
In order to achieve such sustained presence of vitamin C in urine, it is instead necessary to take it at least twice daily, as shown in Fig. 3. Different dosages (from 0.25 to 2.0 grams) of vitamin C were administered to a representative subject every 12 hours, at times 0 and 12 hour in the figure, on four separate days of a four week period. The mass of vitamin C present in the urine was measured at every micturition. The individual was tested one day of the week for four consecutive weeks with progressively increasing dosages followed by six-day periods of rest. As illustrated by the figure, taking at least 500 mg twice daily led to continuously elevated levels of vitamin C in the urine tested.
Each micturition during the entire 24 hours was collected and the total mass of vitamin C excreted by each subject was measured by the DCIP assay. In yet another experiment, two daily doses of 0.5 grams of vitamin C were taken daily for 8 days, then no pills were taken for a week, and then 0.5 g daily were taken again for another 8 days. Each micturition during the first and last 24 hr of each 8 day period was collected and assayed to determine the total mass of vitamin C excreted.

[4] = 500 mg dose, average person, within the first 12 hr after ingestion; cited from earlier work

Structure (SMILES): O=C1O[C@H]([C@@H](O)CO)C(O)=C1O [vitamin C, ascorbic acid]
- rate of urinary excretion versus daily dose ([1]; 0, 0.25, 1 or 2 gram doses at 8 am daily, 24-hour pooled urine): increased with increasing daily doses
- intake rate at which a consistently elevated urinary level (greater than SD) begins ([1]; in vivo): 250-500 mg per day
- one-time dose necessary for detectable excretion ([1]; in vivo): 500 mg
- vitamin C levels in urine ([1]; in vivo): no detectable vitamin C levels in urine
- amount excreted on day 8 compared with day 1 ([1]; single daily dose for 8 consecutive days, 24-hour pooled urine): similar
- share of ingested vitamin C detected in the urine ([2]; 2 grams daily, single dose): only a small percentage
- excretion pattern, first versus last day ([2]; 2 grams daily, single dose, 8 consecutive days): No noticeable difference
- time from intake after which vitamin C concentration in the urine increased ([2]; in vivo): 4 h
- total time vitamin C concentration in the urine remained elevated ([2]; in vivo): 12 h
- urinary excretion ([3]; 250 mg every 12 hours): did not cause detectable excretion in amounts exceeding normal quantities
- urinary excretion ([3]; 500 mg or higher (up to 2000 mg) every 12 hours): continuously-detectable elevated levels of excretion
- vitamin C in the urine ([3]; 500 mg twice daily for a week, first and last day): remains continuously elevated
- fraction of dose absorbed into the body [4]: about 60%
